{"source": "patent US5948814A", "about": "“Genistein for the treatment of cystic fibrosis” (priority 1998, dated 1999)", "key": {"ΔF508-CFTR": {"target": "ΔF508-CFTR (Homo sapiens, UniProt P13569, DEL508-508)", "sequence (P13569 with tags, fused parts or gaps DEL508-508)": "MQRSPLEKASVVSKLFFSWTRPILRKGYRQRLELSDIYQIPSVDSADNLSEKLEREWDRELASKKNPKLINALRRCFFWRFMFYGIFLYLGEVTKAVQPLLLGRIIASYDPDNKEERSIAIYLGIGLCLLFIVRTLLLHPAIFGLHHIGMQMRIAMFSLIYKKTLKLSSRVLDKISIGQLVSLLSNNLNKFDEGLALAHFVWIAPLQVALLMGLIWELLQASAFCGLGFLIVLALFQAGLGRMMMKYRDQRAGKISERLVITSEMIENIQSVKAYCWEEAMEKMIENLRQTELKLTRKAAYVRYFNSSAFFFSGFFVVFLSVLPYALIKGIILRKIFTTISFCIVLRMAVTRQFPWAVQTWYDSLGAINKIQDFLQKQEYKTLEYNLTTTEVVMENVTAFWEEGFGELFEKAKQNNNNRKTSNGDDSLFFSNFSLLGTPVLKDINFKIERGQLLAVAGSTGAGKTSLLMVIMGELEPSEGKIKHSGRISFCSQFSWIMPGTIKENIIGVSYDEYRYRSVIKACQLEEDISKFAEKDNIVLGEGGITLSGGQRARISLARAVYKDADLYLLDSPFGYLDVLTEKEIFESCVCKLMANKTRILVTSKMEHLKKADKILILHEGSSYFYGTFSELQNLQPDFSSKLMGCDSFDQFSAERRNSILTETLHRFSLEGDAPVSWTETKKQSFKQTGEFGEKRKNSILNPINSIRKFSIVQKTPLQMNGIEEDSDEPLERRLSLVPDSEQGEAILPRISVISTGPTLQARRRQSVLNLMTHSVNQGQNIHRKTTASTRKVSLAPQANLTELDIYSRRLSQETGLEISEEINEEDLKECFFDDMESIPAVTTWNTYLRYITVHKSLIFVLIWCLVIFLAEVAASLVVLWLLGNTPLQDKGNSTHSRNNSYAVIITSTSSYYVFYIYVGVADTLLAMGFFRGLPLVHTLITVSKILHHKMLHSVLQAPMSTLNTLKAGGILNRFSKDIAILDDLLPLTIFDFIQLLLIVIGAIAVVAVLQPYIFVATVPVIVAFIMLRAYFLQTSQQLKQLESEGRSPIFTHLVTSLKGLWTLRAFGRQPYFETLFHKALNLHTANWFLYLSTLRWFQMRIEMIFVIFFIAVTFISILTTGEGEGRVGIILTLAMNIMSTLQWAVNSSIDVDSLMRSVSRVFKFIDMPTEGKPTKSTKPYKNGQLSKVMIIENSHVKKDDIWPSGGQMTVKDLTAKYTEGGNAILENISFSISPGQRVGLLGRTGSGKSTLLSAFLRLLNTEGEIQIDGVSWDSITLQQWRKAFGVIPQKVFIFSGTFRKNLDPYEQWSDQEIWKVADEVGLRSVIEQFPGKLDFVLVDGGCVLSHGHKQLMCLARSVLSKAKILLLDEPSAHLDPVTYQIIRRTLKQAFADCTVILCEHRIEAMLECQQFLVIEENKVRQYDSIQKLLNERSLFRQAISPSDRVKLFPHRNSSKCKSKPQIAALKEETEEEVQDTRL", "assay": "Patch clamp, cell-attached patches, macroscopic current, NIH/3T3-ΔF508 cells", "method": "FIGS. 3A and B show recordings of the potentiation of wild-type (wt) and ΔF508-CFTR channel activity by genistein. Channels in cell-attached patches from NIH/3T3-CFTR (FIG. 3A) and NIH/3T3-ΔF508cells (FIG. 3B), were stimulated as indicated with 10 μM forskolin and 50μ genestein.\nCell culture: NIH/3T3-CFTR, NIH/3T3-ΔF508, and NIH/3T3 mock cells (generous gifts from Dr. Richard Mulligan of Children's Hospital and Medical Center, Harvard Medical School) were grown as described [Bradbury et al., 1992] at 37° C. and 5% CO2 in Dulbecco's modified Eagle's medium-H21 supplemented with 10% new-born calf serum, 4 mM glutamine, 25 mM glucose, 100 μg/ml penicillin, 100 μg/ml streptomycin, and 50 μg/ml gentamicin. Cells were maintained in T75 flasks, passaged at 90-95% confluency, and split one to four. For measurements of I^- efflux and in vivo phosphorylation, cells were seeded onto 35-mm dishes at […]. For patch-clamp experiments, cells were grown on coverglass chips in 35-mm culture dishes. Media were replaced 24 hours after plating and thereafter every 48 hours. In all cases, media were changed on the day before I^- efflux studies, NIH/3T3-ΔF508 cells were transferred to 27° C. three days before use, and 1 day prior to study, media were supplemented with 5 mM butyrate. For patch-clamp studies, where a constant level of functional ΔF508-CFTR was not essential, NIH/3T3-ΔF508 cells were cultured at 27° C. for 2-6 days before use. Calu-3 cells were grown and maintained as described by Hunter [1995].\nElectrophysiology: CFTR channel currents were recorded at room temperature (~22° C.) with a patch-clamp amplifier (EPC-9, Heka Electronic), filtered at 100 Hz with a built-in three-pole Bessel filter, and stored on videotapes. Data were subsequently refiltered at 25 Hz with an eight-pole Bessel filter (Frequency Device, Havervill, Mass.) and captured onto a hard disk at a sampling rate of 50 Hz. […] Patch-clamp electrodes were made from Corning 7052 glass capillaries (Warner Instrument, Hammed, Conn.). The pipette resistance was usually 3-5 M.OMEGA., and the seal resistance was >20 G.OMEGA.. The pipette solution contained (in mM) 140 N-methyl-D-glucamine chloride (NMDG-C1), 2 MgCl2, 5Ca Cl2, and 10 HEPES (pH 7.4 with NMDG). The superfusion solution contained (in mM) 150 […], 2 MgCl2, 1 EGTA, 5 glucose, and 5 HEPES (pH 7.4 with NaOH). […]\nStatistics: Mean currents and variance were estimated with Igor (Wavemetrics, Lake Oswego, Oreg.). […] Po was calculated from patches containing a single channel by dividing the open channel current amplitude with the mean-current amplitude. […] Calculated values are presented as means±SE. […]"}, "wt-CFTR": {"target": "wt-CFTR (Homo sapiens, UniProt P13569)", "sequence (P13569 whole entry)": "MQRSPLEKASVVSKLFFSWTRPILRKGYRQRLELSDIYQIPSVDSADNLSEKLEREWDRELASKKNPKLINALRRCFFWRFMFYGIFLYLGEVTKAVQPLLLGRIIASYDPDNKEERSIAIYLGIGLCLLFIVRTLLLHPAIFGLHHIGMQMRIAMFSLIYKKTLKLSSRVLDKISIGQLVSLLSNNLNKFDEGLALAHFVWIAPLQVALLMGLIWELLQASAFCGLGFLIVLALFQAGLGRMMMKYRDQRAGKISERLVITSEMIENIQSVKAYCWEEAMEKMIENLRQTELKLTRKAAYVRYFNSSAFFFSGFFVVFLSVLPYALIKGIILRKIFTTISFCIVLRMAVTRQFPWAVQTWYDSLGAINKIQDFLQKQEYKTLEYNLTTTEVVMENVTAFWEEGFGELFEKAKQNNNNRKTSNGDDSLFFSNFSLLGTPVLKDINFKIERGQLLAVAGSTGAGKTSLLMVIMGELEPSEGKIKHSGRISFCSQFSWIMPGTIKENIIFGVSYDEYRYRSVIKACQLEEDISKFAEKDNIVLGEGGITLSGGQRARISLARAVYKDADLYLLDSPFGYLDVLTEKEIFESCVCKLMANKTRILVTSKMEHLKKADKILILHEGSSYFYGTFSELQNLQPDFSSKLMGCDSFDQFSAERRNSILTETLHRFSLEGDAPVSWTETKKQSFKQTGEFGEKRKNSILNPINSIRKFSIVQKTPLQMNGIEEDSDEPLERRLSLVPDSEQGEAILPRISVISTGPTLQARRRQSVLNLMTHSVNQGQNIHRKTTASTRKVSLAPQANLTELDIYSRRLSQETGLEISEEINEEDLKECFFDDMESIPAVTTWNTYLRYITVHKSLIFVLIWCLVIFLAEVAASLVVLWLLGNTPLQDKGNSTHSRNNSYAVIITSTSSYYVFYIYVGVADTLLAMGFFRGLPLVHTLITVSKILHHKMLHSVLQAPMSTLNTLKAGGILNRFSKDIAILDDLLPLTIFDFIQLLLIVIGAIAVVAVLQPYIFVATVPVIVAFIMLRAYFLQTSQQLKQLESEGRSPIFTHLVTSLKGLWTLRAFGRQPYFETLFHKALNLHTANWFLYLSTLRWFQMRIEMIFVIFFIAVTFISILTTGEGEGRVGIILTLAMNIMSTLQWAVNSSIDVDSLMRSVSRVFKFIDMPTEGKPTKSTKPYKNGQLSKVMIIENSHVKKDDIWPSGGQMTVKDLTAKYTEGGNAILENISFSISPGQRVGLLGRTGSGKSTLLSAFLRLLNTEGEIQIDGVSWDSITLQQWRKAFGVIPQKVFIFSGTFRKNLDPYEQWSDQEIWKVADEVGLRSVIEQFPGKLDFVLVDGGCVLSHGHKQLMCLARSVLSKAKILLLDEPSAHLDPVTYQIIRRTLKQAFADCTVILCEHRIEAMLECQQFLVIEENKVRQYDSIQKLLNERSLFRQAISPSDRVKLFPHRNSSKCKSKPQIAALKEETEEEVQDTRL", "method": "Electrophysiology: CFTR channel currents were recorded at room temperature (~22° C.) with a patch-clamp amplifier (EPC-9, Heka Electronic), filtered at 100 Hz with a built-in three-pole Bessel filter, and stored on videotapes. Data were subsequently refiltered at 25 Hz with an eight-pole Bessel filter (Frequency Device, Havervill, Mass.) and captured onto a hard disk at a sampling rate of 50 Hz. […] Patch-clamp electrodes were made from Corning 7052 glass capillaries (Warner Instrument, Hammed, Conn.). The pipette resistance was usually 3-5 M.OMEGA., and the seal resistance was >20 G.OMEGA.. The pipette solution contained (in mM) 140 N-methyl-D-glucamine chloride (NMDG-C1), 2 MgCl2, 5Ca Cl2, and 10 HEPES (pH 7.4 with NMDG). The superfusion solution contained (in mM) 150 […], 2 MgCl2, 1 EGTA, 5 glucose, and 5 HEPES (pH 7.4 with NaOH). In excised inside-out patch experiments, the bath solution contained (in mM) 130 MNDG-Cl, 10 EGTA, 10 HEPES, 20 tetraethylammonium chloride, 8 Tris, and 2 MgCl2 (pH 7.4 with NMDG). Pipette potential was held at 50 mV relative to the bath. Downward deflections represent channel opening."}}, "note": "Where “and” joins values, the source holds several entries; their conditions need not be identical. Equal entries are not always repeated."}
{"smiles": "O=c1c(-c2ccc(O)cc2)coc2cc(O)cc(O)c12", "note": "[Genistein, 4',5,7-trihydroxyisoflavone]", "values": [{"measurement": "patches showing channel activity", "setting": "ΔF508-CFTR; 10 μM forskolin plus 50 μM genistein, cells grown at 37° C.", "value": "Approximately 10%"}, {"measurement": "average increase in mean-current amplitude by genistein", "setting": "ΔF508-CFTR; 50 μM genistein on 10 μM forskolin, cells cultured at 27° C., 23 patches, 50 µM", "value": "18.6±2.2 fold and 19 fold"}, {"measurement": "patches responding", "setting": "ΔF508-CFTR; forskolin plus genistein, cells grown at 27° C., 44 of 82", "value": 54, "unit": "%"}, {"measurement": "magnitude of potentiation by genistein after patch cramming", "setting": "wt-CFTR; patch crammed into a different NIH/3T3-CFTR cell", "value": "similar"}, {"measurement": "increase of mean current by genistein", "setting": "wt-CFTR; wt-CFTR crammed into NIH/3T3-ΔF508 cell, 10 μM forskolin, 50 μM genistein, n=3", "value": "3.2±0.3", "unit": "fold"}]}
